Active and inactive are the calls of the source. No cut-off for these calls is given here.
Tests used:
[1] = biological target: Serotonin 1 (5-HT1) receptor (Rattus norvegicus, UniProt P28564+P30940+P19327+P28565); assay: Compound was evaluated for the inhibition of [3H]5-HT (concentration of 12 nM) specific binding to rat hippocampus; assay type: tissue-based
[2] = biological target: D(2) dopamine receptor (Rattus norvegicus) (UniProt P61169); assay: Displacement of [3H]spiroperidol from dopamine receptor D2 binding sites of rat striatal membranes; inactive; assay type: cell membranes; conditions: Membrane
Chain of D(2) dopamine receptor (Rattus norvegicus) (P61169 whole entry): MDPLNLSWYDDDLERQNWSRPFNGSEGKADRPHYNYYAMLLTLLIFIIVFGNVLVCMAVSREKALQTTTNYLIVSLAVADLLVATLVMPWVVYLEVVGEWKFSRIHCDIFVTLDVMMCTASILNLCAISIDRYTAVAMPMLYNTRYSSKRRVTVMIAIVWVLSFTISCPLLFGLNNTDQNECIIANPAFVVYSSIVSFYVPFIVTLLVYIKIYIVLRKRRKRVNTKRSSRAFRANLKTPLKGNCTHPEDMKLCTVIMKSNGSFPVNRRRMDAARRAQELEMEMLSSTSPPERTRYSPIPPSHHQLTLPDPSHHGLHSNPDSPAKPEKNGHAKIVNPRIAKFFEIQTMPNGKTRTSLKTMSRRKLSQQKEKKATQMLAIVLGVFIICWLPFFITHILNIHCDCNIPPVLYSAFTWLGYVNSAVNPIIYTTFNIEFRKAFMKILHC

[3] = biological target: D(2) dopamine receptor (Rattus norvegicus, UniProt P61169); assay: Ability to displace [3H]spiroperidol, from dopamine receptor D2 specific binding sites of rat striatal membranes; design: species or system Striatum, Membrane
Chain of D(2) dopamine receptor (P61169 whole entry): as above

`CCCN1CCOC(c2cccc(OC)c2)C1` (stereo not given) was tested, and the IC50 [1] was 1 µM and the Activity [2] was “inactive”.
For `CCCN1CCOC(c2ccsc2)C1` (stereo not given), the Activity [2] was “inactive”.
`CCCN1CCOC(c2ccccc2OC)C1` (stereo not given) was tested, and the IC50 [1] was 1 µM and the Activity [2] was “inactive”.
`CCCN1CCCC(c2ccccc2OC)C1` (stereo not given) gave an IC50 [3] of 8 µM.
For `CCCN1CCOC(c2cccc([N+](=O)[O-])c2)C1` (stereo not given), the Activity [2] was “inactive”.
In the case of `CCCN1CCOC(c2ccccc2Cl)C1` (stereo not given), the IC50 [1] is reported as 3 µM and the Activity [2] is reported as “inactive”.
`CCCN1CCOC(c2ccccc2O)C1` (stereo not given) was tested, and the Activity [2] was “inactive”.
`CCCN1CCOC(c2cccs2)C1` (stereo not given) was tested, and the Activity [2] was “inactive”.
In the case of `CCCN1CCOC(c2cccc(Cl)c2)C1` (stereo not given), the IC50 [1] is reported as 5 µM and the Activity [2] is reported as “inactive”.
With `CCCN1CCCC(c2ccccc2O)C1` (stereo not given) the IC50 [3] was 7 µM.
`CCCN1CCOC(c2cccc(O)c2)C1` (stereo not given) was tested, and the Activity [2] was “inactive”.
